The source of these data is paper PMC6155255, “Synthetic Peptides Derived from Bovine Lactoferricin Exhibit Antimicrobial Activity against E. coli ATCC 11775, S. maltophilia ATCC 13636 and S. enteritidis ATCC 13076” (Molecules : A Journal of Synthetic Chemistry and Natural …, 2017).

Read-outs that look alike come from different tables or passages of the source. Positions of bridges follow the written chain, without caps; N, C: chain ends. Non-standard residues stand in square brackets, D forms with d. Residues, ends and D or L forms follow the SMILES beside them. Chains are numbered I, II in the order given. No end group written: not given here. Ahx = NCCCCCC(=O)O Some results are limits rather than exact numbers.

In test [1] the test system is S. enteritidis ATCC 13076. It counts as cell-based, Salmonella enteritidis. How it is done: (§1) The MIC and MBC were determined using a microdilution assay. In brief, bacterial strains were incubated for 18 to 24 h at 37 °C in an MH broth until an optical density of 0.15 to 0.30 (620 nm) was obtained. 90 µL of Mueller-Hinton broth (MHB) were mixed with 90 µL of peptide (440 µg/mL), and using a 96-well microtiter plate peptide, serial dilution (200, 100, 50, 25, 12.5, and 6.2 µg/mL) was performed. 10 µL of inoculum (2 × 10^6 CFU/mL) was added to each well. Final volume in each well was 100 µL. Then they were incubated for 24 h at 37 °C; and the absorbance at 620 nm was measured using an Asys Expert Plus ELISA reader. To determine the MBC, an aliquot was taken from each well and was spread onto a MHA plate. After 24 h at 37 °C, the CFU/mL was determined. Each of these tests was performed twice.

A further test deals with E. coli ATCC 11775. It counts as cell-based, Escherichia coli. How it is done:
as §1

In test [2] the test system is S. maltophilia ATCC 13636. It counts as cell-based, Stenotrophomonas maltophilia. As to the method: as §1
The test system of the next test is E. coli K88. More on the design: method as in PMID 11248238, PMID 21607695, doi:10.1002/(SICI)1099-1387(199901)5:1<32::AID-PSC172>3.0.CO. To be noted: cited from earlier work.
For test [3], the system named is E. coli ATCC 25922. The conditions noted are these: cited from earlier work. As to the method:
This apparent discrepancy could be related to the method used for determining the MIC [46, 47]. The antibacterial activity of LfcinB against E. coli IID861 was determined using the microdilution method with Mueller-Hinton broth (MIC = 50 µg/mL) or peptone-based broth (MIC = 6 µg/mL). […] Antibacterial activity against E. coli ATCC 25922 has also been reported, s ...

The test system of test [4] is E. coli ATCC 25922.
Setting [5] is: S. enteritidis ATCC 13076, aliquot of each well spread on MHA plate, 24 h at 37 °C, CFU/mL, performed twice.
Where [6] appears, read: S. enteritidis ATCC 13076, microdilution, Mueller-Hinton broth, 24 h at 37 °C, absorbance 620 nm, 6.2-200 µg/mL tested, performed twice.
[7] abbreviates: E. coli ATCC 11775, aliquot of each well spread on MHA plate, 24 h at 37 °C, CFU/mL, performed twice.
Setting [8] is: E. coli ATCC 11775, microdilution, Mueller-Hinton broth, 24 h at 37 °C, absorbance 620 nm, 6.2-200 µg/mL tested, performed twice.
The mark [9] stands for this setting: E. coli ATCC 11775, value in brackets (µM), aliquot spread on MHA plate, 24 h at 37 °C, performed twice.
Setting [10] is: E. coli ATCC 11775, value in brackets (µM), microdilution, Mueller-Hinton broth, 24 h at 37 °C, performed twice.
The mark [11] stands for this setting: S. maltophilia ATCC 13636, aliquot of each well spread on MHA plate, 24 h at 37 °C, CFU/mL, performed twice.
The mark [12] stands for this setting: S. maltophilia ATCC 13636, microdilution, Mueller-Hinton broth, 24 h at 37 °C, absorbance 620 nm, 6.2-200 µg/mL tested, performed twice.

By MBC is commonly meant the lowest tested concentration that kills the bacteria rather than only halting them. Read a low MBC as more potent killing. As a reminder, the MIC is the lowest concentration that inhibits growth of the organism. For the compound `CSCC[C@H](NC(=O)[C@H](CCCNC(=N)N)NC(=O)[C@H](Cc1c[nH]c2ccccc12)NC(=O)[C@H](CCC(N)=O)NC(=O)[C@H](Cc1c[nH]c2ccccc12)NC(=O)[C@H](CCCNC(=N)N)NC(=O)[C@H](CCCNC(=N)N)NC(=O)[C@H](CS)NC(=O)[C@H](CCCCN)NC(=O)[C@@H](N)Cc1ccccc1)C(=O)N[C@@H](CCCCN)C(=O)N[C@@H](CCCCN)C(=O)N[C@@H](CC(C)C)C(=O)NCC(=O)N[C@@H](C)C(N)=O` [LfcinB 17–31], the minimal bactericidal concentration (MBC) is given as 100 µM in test [1] (ATCC 13076, 24 h); 200 µg/mL in test [1] (setting [5]); 13 µM in the test on E. coli ATCC 11775 (ATCC 11775, 24 h); 25 µg/mL in the test with E. coli ATCC 11775 (setting [7]); 12.5 µM with E. coli ATCC 11775 (setting [9]); more than 100 µM in test [2] (ATCC 13636, 24 h). The compound also yielded an MBC in test [2] (setting [11]) of more than 200 µg/mL. Also, the minimal inhibitory concentration (MIC) in test [1] (ATCC 13076, 24 h) is more than 100 µM; in test [1] (setting [6]), more than 200 µg/mL; in the test on E. coli ATCC 11775 (ATCC 11775, 24 h), 13 µM; against E. coli ATCC 11775 (setting [8]), 25 µg/mL; against E. coli ATCC 11775 (setting [10]) it was 12.5 µM; in test [2] (ATCC 13636, 24 h), more than 100 µM. The compound also showed an MIC in test [2] (setting [12]) of more than 200 µg/mL.

Turning to `N=C(N)NCCC[C@H](NC(=O)[C@H](Cc1c[nH]c2ccccc12)NC(=O)[C@H](CCC(N)=O)NC(=O)[C@H](Cc1c[nH]c2ccccc12)NC(=O)[C@H](CCCNC(=N)N)NC(=O)[C@@H](N)CCCNC(=N)N)C(=O)NCCCC[C@H](NC(=O)[C@H](CCCNC(=N)N)NC(=O)[C@H](Cc1c[nH]c2ccccc12)NC(=O)[C@H](CCC(N)=O)NC(=O)[C@H](Cc1c[nH]c2ccccc12)NC(=O)[C@H](CCCNC(=N)N)NC(=O)[C@@H](N)CCCNC(=N)N)C(=O)NCCCCCC(N)=O` [LfcinB (20–25)2] (I: H-RRWQWRK[Ahx]-NH2 / II: H-RRWQWR; amide I:7-II:C), the MBC in test [1] (ATCC 13076, 24 h) came to 5.6 µM; in test [1] (setting [5]), 12.5 µg/mL; in the test on E. coli ATCC 11775 (ATCC 11775, 24 h) it was 3 µM; against E. coli ATCC 11775 (setting [7]), 6.2 µg/mL; in the test with E. coli ATCC 11775 (setting [9]) it was 2.8 µM; in test [2] (ATCC 13636, 24 h) it was 22.4 µM. In test [2] (setting [11]), this compound had a minimum bactericidal concentration (MBC) of 50 µg/mL. Also, the MIC in test [1] (ATCC 13076, 24 h) was 6 µM; in test [1] (setting [6]), 12.5 µg/mL; in test [1] (S. enteritidis ATCC 13076, value in brackets (µM), microdilution, Mueller-Hinton broth, 24 h at 37 °C, performed twice), 5.6 µM; in the test with E. coli ATCC 11775 (ATCC 11775, 24 h), 3 µM; with E. coli ATCC 11775 (setting [8]), 6.2 µg/mL; in the test on E. coli ATCC 11775 (setting [10]) it was 2.8 µM. Also, the MIC in test [2] (ATCC 13636, 24 h) came to 22.4 µM; in test [2] (setting [12]), 50 µg/mL.

Regarding `N=C(N)NCCC[C@H](NC(=O)[C@H](Cc1c[nH]c2ccccc12)NC(=O)[C@H](CCC(N)=O)NC(=O)[C@H](Cc1c[nH]c2ccccc12)NC(=O)[C@H](CCCNC(=N)N)NC(=O)[C@@H](N)CCCNC(=N)N)C(=O)NCCCC[C@H](NC(=O)[C@H](CCCNC(=N)N)NC(=O)[C@H](Cc1c[nH]c2ccccc12)NC(=O)[C@H](CCC(N)=O)NC(=O)[C@H](Cc1c[nH]c2ccccc12)NC(=O)[C@H](CCCNC(=N)N)NC(=O)[C@@H](N)CCCNC(=N)N)C(=O)NCCCCCC(=O)N[C@@H](CSSC[C@H](NC(=O)CCCCCNC(=O)[C@H](CCCCNC(=O)[C@H](CCCNC(=N)N)NC(=O)[C@H](Cc1c[nH]c2ccccc12)NC(=O)[C@H](CCC(N)=O)NC(=O)[C@H](Cc1c[nH]c2ccccc12)NC(=O)[C@H](CCCNC(=N)N)NC(=O)[C@@H](N)CCCNC(=N)N)NC(=O)[C@H](CCCNC(=N)N)NC(=O)[C@H](Cc1c[nH]c2ccccc12)NC(=O)[C@H](CCC(N)=O)NC(=O)[C@H](Cc1c[nH]c2ccccc12)NC(=O)[C@H](CCCNC(=N)N)NC(=O)[C@@H](N)CCCNC(=N)N)C(N)=O)C(N)=O` [LfcinB (20–25)4] (I: H-RRWQWRK[Ahx]C-NH2 / II: H-RRWQWRK[Ahx]C-NH2 / III: H-RRWQWR / IV: H-RRWQWR; amide I:7-III:C, II:7-IV:C; disulfide I:9-II:9), the MBC amounted to 22 µM in test [1] (ATCC 13076, 24 h); 100 µg/mL in test [1] (setting [5]); 5 µM against E. coli ATCC 11775 (ATCC 11775, 24 h); 25 µg/mL against E. coli ATCC 11775 (setting [7]); 5.5 µM in the test on E. coli ATCC 11775 (setting [9]); 44 µM in test [2] (ATCC 13636, 24 h). The compound also yielded an MBC in test [2] (setting [11]) of 200 µg/mL. In addition, the minimal inhibitory concentration (MIC) is 44 µM in test [1] (ATCC 13076, 24 h); 200 µg/mL in test [1] (setting [6]); 5 µM with E. coli ATCC 11775 (ATCC 11775, 24 h); 25 µg/mL in the test on E. coli ATCC 11775 (setting [8]); 5.5 µM in the test with E. coli ATCC 11775 (setting [10]); more than 44 µM in test [2] (ATCC 13636, 24 h). In test [2] (setting [12]), this compound showed a minimum inhibitory concentration (MIC) of more than 200 µg/mL.

Turning to `N=C(N)NCCC[C@@H]1NC(=O)[C@H](Cc2c[nH]c3ccccc23)NC(=O)[C@H](CCC(N)=O)NC(=O)[C@H](Cc2c[nH]c3ccccc23)NC(=O)[C@H](CCCNC(=N)N)NC(=O)[C@H](CCCNC(=N)N)NC(=O)[C@@H](N)CSSC[C@@H](C(N)=O)NC(=O)CCCCCNC1=O` [LfcinB (20–25)Cyc] (H-CRRWQWR[Ahx]C-NH2; disulfide 1-9; N-terminus assumed), the MBC in test [1] (ATCC 13076, 24 h) is recorded as 42 µM; in test [1] (setting [5]), 50 µg/mL; in the test on E. coli ATCC 11775 (ATCC 11775, 24 h) it was 19 µM; in the test on E. coli ATCC 11775 (setting [7]), 25 µg/mL; with E. coli ATCC 11775 (setting [9]) it was 21 µM; in test [2] (ATCC 13636, 24 h), 200 µg/mL. Further, the minimal inhibitory concentration (MIC) in test [1] (ATCC 13076, 24 h) came out at 42 µM; in test [1] (setting [6]) it was 50 µg/mL; with E. coli ATCC 11775 (ATCC 11775, 24 h) it was 19 µM; with E. coli ATCC 11775 (setting [8]) it was 25 µg/mL; against E. coli ATCC 11775 (setting [10]), 21 µM; in test [2] (ATCC 13636, 24 h), 200 µg/mL.

As to “FKCRRWAQRWRMKKLGAPSITCVRRAF [synthetic peptide homolog to LfcinB, 27 residues, from the literature]”, the minimal inhibitory concentration (MIC) in the test with E. coli K88 is reported as 64 µg/mL; with E. coli ATCC 25922 [3] it was 30 µg/mL.

As for “KCRRWAQRWRMKKLGAPSITCVR [shorter peptide, 23 residues, from the literature]”, the MIC in the test with E. coli ATCC 25922 [3] is reported as 30 µg/mL.

With RRWQWR-NH2 [LfcinB 20–25], the minimum bactericidal concentration (MBC) in test [1] (ATCC 13076, 24 h) is listed as 102 µM; against E. coli ATCC 11775 (ATCC 11775, 24 h) it was 13 µM; in test [2] (ATCC 13636, 24 h) it was more than 203 µM. Also, the MIC is 102 µM in test [1] (ATCC 13076, 24 h); 13 µM in the test on E. coli ATCC 11775 (ATCC 11775, 24 h); more than 203 µM in test [2] (ATCC 13636, 24 h).

Regarding RWQWRWQWR-NH2 [LfcinB 21–25Pal], the MBC in test [1] (ATCC 13076, 24 h) turned out to be 17 µM; in the test with E. coli ATCC 11775 (ATCC 11775, 24 h), 8 µM; in test [2] (ATCC 13636, 24 h) it was 136 µM. The MIC is recorded as 17 µM in test [1] (ATCC 13076, 24 h); 8 µM with E. coli ATCC 11775 (ATCC 11775, 24 h); 40 µg/mL in the test on E. coli ATCC 25922 [4]; more than 136 µM in test [2] (ATCC 13636, 24 h).

With RWRWR, in the test with E. coli ATCC 25922 [3] (palindromic sequences), the MIC is given as 200 µg/mL.

Consider WRWRW, for which the MIC in the test on E. coli ATCC 25922 [3] (palindromic sequences) is reported as 15 µg/mL.

On to WRYRW, for which the minimum inhibitory concentration (MIC) in the test with E. coli ATCC 25922 [3] (palindromic sequences) is 100 µg/mL.
